Measurements published in PubChem BioAssay AID1963866 (Molecular Pharmacology Branch, DTP, NCI, 2024).
Several values for one entry are separate records, joined by “and”; a condition that tells them apart may be missing. Identical values can stand only once.

Test system: PDC KRAS tumor spheroids with HUVEC/MSC, viability
Experiment: Anticancer human tumor 349418-098-R-PDC patient-derived lung adenocarcinoma cell line growth inhibition [KRAS2]
Conditions: for viability, T/C: stronger effect = lower value
Description: Multicellular complex tumor spheroid response to RAS pathway inhibitors in combination with a targeted agents in patient-derived cell lines with oncogenic KRAS variants from multiple cancer types
A high-throughput screen of multi-cell type tumor spheroids was designed to identify active combinations of targeted small molecules and KRAS pathway inhibitors. Complex spheroids include a stromal component modeled by human endothelial cells (HUVEC) and fibroblasts modeled by human mesenchymal stem cells (MSCs). The concentration ranges selected for each drug and investigational agent were based upon clinically achievable concentrations if the clinical Cmax of the agent was known.
Compounds. The drugs and investigational agents: BI-3406 (NSC825286), BAY-293 (NSC824723), batoprotafib (TNO155; NSC825523), sotorasib (AMG 510; NSC818433), MRTX1257 (NSC819558), elimusertib (BAY 1895344; NSC800525), molibresib (GSK525762; NSC774829), temuterkib (LY3214996; NSC803410), venetoclax (NSC766270), alisertib (NSC759677), olaparib (NSC753686), talazoparib (NSC767125), erdafitinib (NSC781556), ipatasertib (NSC767898), cabozantinib (NSC761068), nintedanib (NSC756659), abemaciclib (NSC768073), docetaxel (NSC628503), trametinib (NSC758246), and sapanisertib (NSC764658) were obtained from the National Cancer Institute (NCI) Developmental Therapeutics Program Chemical Repository. The FDA-approved anticancer drug set is available from the Developmental Therapeutics Program. […] The stock solutions were prepared in dimethyl sulfoxide (DMSO, Sigma-Aldrich, St. Louis, MO, cat. D2650) at 800-fold the tested concentration and stored at -70 degrees C prior to their use. All drugs and investigational agents were tested over a range starting from a high concentration at or near the clinical Cmax and decreasing in half-log increments. If the clinical Cmax for an agent had not been determined, the highest concentration tested was 10 microM.
Cell Culture. All cells were maintained in an incubator at 37 degrees C and 5% CO2 with 95% humidity. The PDC lines were cultured according to standard operating procedures established by the NCI PDMR (https://pdmr.cancer.gov/sops/default.htm). Briefly, all PDCs were thawed and cultured in Matrigel-coated flasks prepared with a working solution of 1X Ham's F-12 nutrient mix, without supplementation (Invitrogen, Waltham, MA, cat. 11765054), 100 U/mL penicillin-streptomycin (Invitrogen, cat. 15140122), and 2.5% Matrigel (Corning Inc., Corning, NY, cat. 354248) for the first three passages. All PDCs were cultured in complete DMEM/F-12 media containing advanced DMEM/F-12 (Invitrogen, cat. 12634028), 4.9% defined fetal bovine serum, heat inactivated (HyClone Laboratories Inc., Logan, UT, cat. SH30070.03HI), 389 ng/mL hydrocortisone (Sigma-Aldrich, cat. H4001), 9.7 ng/mL human EGF recombinant protein (Invitrogen, cat. PHG0313), 23.4 microg/mL adenine (Sigma-Aldrich, cat. A2786), 97.3 U/mL penicillin-streptomycin (Invitrogen, cat. 15140122), 1.9 mM L-glutamine (Invitrogen, cat. 25030081), and 9.7 microM Y-27632 dihydrochloride (Tocris Bioscience, Bristol, United Kingdom, cat. 1254). The PDCs were cultured in complete DMEM/F12 media without 9.7 microM Y-27632 dihydrochloride for at least two passages prior to the screen. The established cell line HOP-62 was cultured in RPMI 1640 medium, HEPES (Invitrogen, cat. 22400105) with 10% defined fetal bovine serum (HyClone Laboratories Inc., cat. SH30070.03) and 2 mM L-glutamine (Invitrogen, cat. 25030081). The pooled donor HUVEC were cultured in endothelial cell growth medium 2 (PromoCell, Heidelberg, Germany, cat. C-22011) and the hMSC were cultured in mesenchymal stem cell growth medium 2 (PromoCell, cat. C-28009). For all experiments, HUVEC and hMSC were used at passages </=5, while the malignant cell lines were used at passages </=15. […]

[1] = compound alone, run of 07/19/2021
[2] = compound alone, run of 07/26/2021
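Also: spheroids exposed to compounds for seven days before readout.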

SMILES	viability, T/C (compound 10 µM)	IC50 [1]	IC50 [2]	viability, T/C (compound 0.0001 µM)	viability, T/C (compound 0.000316 µM)	viability, T/C (compound 0.001 µM)	viability, T/C (compound 0.00316 µM)	viability, T/C (compound 0.01 µM)	viability, T/C (compound 0.0316 µM)	IC50 (curve of compound)	viability, T/C (compound 0.1 µM)	viability, T/C (compound 0.316 µM)	viability, T/C (compound 1 µM)	viability, T/C (compound 3.16 µM)	IC50 (compound alone, run of 07/12/2021)
C=CC(=O)N1CCN(c2nc(=O)n(-c3c(C)ccnc3C(C)C)c3nc(-c4c(O)cccc4F)c(F)cc23)C(C)C1 (centres undefined)	37.2% [middle of 17 runs]	5.54 µM [middle of 5 runs]	6.3 µM [middle of 6 runs]	–	–	–	–	–	–	–	–	–	–	–	–
C=CC(=O)N1CCN(c2nc(OCC3CCCN3C)nc3c2CCN(c2cccc4cccc(C)c24)C3)CC1CC#N (centres undefined)	–	1.47 µM [middle of 5 runs]	1.33 µM [middle of 5 runs]	–	–	–	–	–	–	–	–	–	–	–	–
CC(=O)Nc1cccc(-n2c(=O)n(C3CC3)c(=O)c3c(Nc4ccc(I)cc4F)n(C)c(=O)c(C)c32)c1	–	–	–	31.7% [middle of 5 runs]	22.2% [middle of 5 runs]	18.4% [middle of 5 runs]	13.8% [middle of 5 runs]	9.89% [middle of 5 runs]	7.25% [middle of 5 runs]	< 0.0001 µM	–	–	–	–	–
CC(=O)OC12COC1CC(O)C1(C)C(=O)C(O)C3=C(C)C(OC(=O)C(O)C(NC(=O)OC(C)(C)C)c4ccccc4)CC(O)(C(OC(=O)c4ccccc4)C21)C3(C)C (centres undefined)	–	–	–	–	–	–	–	15% [middle of 5 runs]	17.7% [middle of 5 runs]	< 0.01 µM	19.3% [middle of 5 runs]	22.6% [middle of 5 runs]	32.3% [middle of 4 runs]	25.7% [middle of 5 runs]	–
CC(C)NCC(C(=O)N1CCN(c2ncnc3c2C(C)CC3O)CC1)c1ccc(Cl)cc1 (centres undefined)	7.52% [middle of 5 runs]	–	–	–	–	–	–	–	93.4% [middle of 5 runs]	334 nM [middle of 5 runs]	77.8% [middle of 5 runs]	49.3% [middle of 5 runs]	27.4% [middle of 5 runs]	17.1% [middle of 5 runs]	–
CC(C)n1nc(-c2ccc3oc(N)nc3c2)c2c(N)ncnc21	–	–	–	–	87.2% [middle of 5 runs]	47.6% [middle of 5 runs]	17.1% [middle of 5 runs]	10.7% [middle of 5 runs]	9.1% [middle of 5 runs]	0.92 nM [middle of 5 runs]	8.83% [middle of 5 runs]	–	–	–	–
CC1(C)CCC(CN2CCN(c3ccc(C(=O)NS(=O)(=O)c4ccc(NCC5CCOCC5)c([N+](=O)[O-])c4)c(Oc4cnc5[nH]ccc5c4)c3)CC2)=C(c2ccc(Cl)cc2)C1	5.14% [middle of 5 runs]	–	–	–	–	–	–	–	101% [middle of 5 runs]	1.89 µM [middle of 5 runs]	97.5% [middle of 5 runs]	91.1% [middle of 5 runs]	88.3% [middle of 5 runs]	21.2% [middle of 5 runs]	–
CC1COCCN1c1cc(-c2ccnn2C)c2ccnc(-c3ccn[nH]3)c2n1 (centres undefined)	–	–	–	–	–	–	–	–	–	–	10.9% [middle of 5 runs]	6.73% [middle of 5 runs]	5.15% [middle of 5 runs]	4.48% [middle of 5 runs]	–
CC1OCC2(CCN(c3cnc(Sc4ccnc(N)c4Cl)c(N)n3)CC2)C1N (centres undefined)	–	> 10 µM	> 10 µM	–	–	–	–	–	102% (2×) and 80.3%	> 10 µM	–	–	–	–	10 µM and > 10 µM
